Source: US11767319B2, “Crystalline forms of a selective c-kit kinase inhibitor” (Third Harmonic Bio, Inc., priority 2020, dated 2023)

Tests used:
Type in all cases: physicochemical
[1] = Hydration mapping starting with amorphous compound 1
Method: To establish the hydration map of compound 1, solutions with varying water activity (aw) were prepared and the aw was measured using a water activity meter. Table 13 below details the solvent systems investigated and their corresponding measured water activities.
To prepare amorphous material, 480 mg of Form A of compound 1 was weighed into a vial before being dissolved in 24 mL 1,4-dioxane. The resulting solution was then split evenly between 24 vials before being placed in the chamber of a freeze dryer at −50° C. to completely freeze the samples. The samples were then freeze dried overnight (approx. 18 h) and fluffy off-white solids were recovered. A small sub-sample of solid from one vial was analyzed by XRPD to confirm that amorphization had occurred. Using the other 23 vials of amorphous material, 1 mL of the solutions prepared above was added to each vial to prepare slurries. As before, where solutions were observed a brief manual agitation, an additional ˜10 to 20 mg of amorphous material was added to prepare a slurry. Additional solid was added to the 2-MeTHF, acetone/water (aw of 0.14 and 0.28), methanol/water (aw of 0.11) and acetonitrile/water (aw of 0.11) samples. All slurries were then agitated for 72 h at 25° C. After 72 h, aliquots of solid were isolated via centrifugal filtration and analyzed by XRPD.

[2] = Form investigation in buffered media; details: for XRPD Pattern / pH (24 h): 24 h at 25° C.
Method: To investigate the polymorphic landscape of compound 1 in buffered systems, 5×20 mg of Form A slurries and 5×20 mg of amorphous slurries (amorphous material prepared using the method described in the above hydration mapping experiments) were prepared by adding 1 mL of buffer to each vial and the resulting slurries were agitated for 24 h at 25° C. The pH was measured post-buffer addition and after 24 h agitation. After 24 h, aliquots of solid were isolated via centrifugal filtration and analysed by XRPD.

[3] = Ethanol/hydrocarbon mixtures slurry study
Method: Using the methods described above for the Form A input and amorphous input experiments, 5×20 mg of Form A slurries and 5×20 mg of amorphous input slurries were prepared by adding 1 mL of solvent (see Table 16 below) to each vial and the resulting slurries were agitated for 24 h at 25° C. After 24 h, aliquots of solid were isolated via centrifugal filtration and analysed by XRPD.

## Cc1ccc(-c2noc([C@H]3C[C@@H]3F)n2)cc1NC(=O)c1cnc2ccccn12 [Amorphous Compound 1, N-(5-(5-((1R,2S)-2-fluorocyclopropyl)-1,2,4-oxadiazol-3-yl)-2-methylphenyl)imidazo[1,2-a]pyridine-3-carboxamide]
[1]; 2-MeTHF, aw 0.0378, 25° C.
  XRPD pattern observed, 72 h: Forms A, H^A and D
[1]; Acetone/Water, aw 0.1363, 25° C.
  XRPD pattern observed, 72 h: Form H^A
[1]; Acetone/Water, aw 0.2621, 25° C.
  XRPD pattern observed, 72 h: Form H^A
[1]; Acetone/Water, aw 0.5455, 25° C.
  XRPD pattern observed, 72 h: Form H^A
[1]; Acetone/Water, aw 0.7082, 25° C.
  XRPD pattern observed, 72 h: Form H^A
[1]; Acetone/Water, aw 0.9439, 25° C.
  XRPD pattern observed, 72 h: Form H^A and possibly Form C
[1]; EtOH/Heptane, aw 0.0300, 25° C.
  XRPD pattern observed, 72 h: Form E
[1]; EtOH/Water, aw 0.1580, 25° C.
  XRPD pattern observed, 72 h: Form H^A
[1]; EtOH/Water, aw 0.3377, 25° C.
  XRPD pattern observed, 72 h: Form H^A
[1]; EtOH/Water, aw 0.4986, 25° C.
  XRPD pattern observed, 72 h: Form H^A
[1]; EtOH/Water, aw 0.7600, 25° C.
  XRPD pattern observed, 72 h: Form A and Form H^A and additional peaks
[1]; EtOH/Water, aw 0.9005, 25° C.
  XRPD pattern observed, 72 h: Form A and Form H^A and additional peaks
[1]; MeCN/Water, aw 0.1060, 25° C.
  XRPD pattern observed, 72 h: Form H^A
[1]; MeCN/Water, aw 0.3664, 25° C.
  XRPD pattern observed, 72 h: Form H^A
[1]; MeCN/Water, aw 0.5573, 25° C.
  XRPD pattern observed, 72 h: Form H^A
[1]; MeCN/Water, aw 0.7300, 25° C.
  XRPD pattern observed, 72 h: Form H^A
[1]; MeCN/Water, aw 0.8946, 25° C.
  XRPD pattern observed, 72 h: Form H^A
[1]; MeOH/Water, aw 0.0963, 25° C.
  XRPD pattern observed, 72 h: Form H^A
[1]; MeOH/Water, aw 0.3242, 25° C.
  XRPD pattern observed, 72 h: Form H
[1]; MeOH/Water, aw 0.5145, 25° C.
  XRPD pattern observed, 72 h: Form H^A
[1]; MeOH/Water, aw 0.6965, 25° C.
  XRPD pattern observed, 72 h: Form H^A
[1]; MeOH/Water, aw 0.9294, 25° C.
  XRPD pattern observed, 72 h: Form C
[1]; Water/2-MeTHF, aw 0.5286, 25° C.
  XRPD pattern observed, 72 h: Form H^A
[2]; NaOH (0.2M)
  XRPD Pattern: Form C
[2]; pH 1.2 (HCl—KCl)
  XRPD Pattern: HCl Salt Form
[2]; pH 4.5 (acetate)
  XRPD Pattern: Form F
[2]; pH 6.8 (phosphate)
  XRPD Pattern: Form C
[2]; pH 8 (PBS)
  XRPD Pattern: Form H^B
[2]; slurry in NaOH (0.2M)
  pH (Post-Buffer Addition): 11.97
  pH (24 h): 11.87
[2]; slurry in pH 1.2 (HCl—KCl)
  pH (Post-Buffer Addition): 1.21
  pH (24 h): 1.21
[2]; slurry in pH 4.5 (acetate)
  pH (Post-Buffer Addition): 4.53
  pH (24 h): 4.55
[2]; slurry in pH 6.8 (phosphate)
  pH (Post-Buffer Addition): 6.85
  pH (24 h): 6.87
[2]; slurry in pH 8 (PBS)
  pH (Post-Buffer Addition): 8.01
  pH (24 h): 8.11
[3]; EtOH/Cyclohexane (50:50% v/v), aw 0.025, 24 h at 25° C.
  XRPD pattern observed: Form E
[3]; EtOH/Dodecane (50:50% v/v), aw 0.024, 24 h at 25° C.
  XRPD pattern observed: Form H^A
[3]; EtOH/Hexane (50:50% v/v), aw 0.018, 24 h at 25° C.
  XRPD pattern observed: Form E
[3]; EtOH/Methylcyclohexane (50:50% v/v), aw 0.019, 24 h at 25° C.
  XRPD pattern observed: Form E
[3]; EtOH/Octane (50:50% v/v), aw 0.019, 24 h at 25° C.
  XRPD pattern observed: Form E
